From patent publication US7799821B2, “Therapeutic compounds” (Allergan, Inc., priority 2004, dated 2010)
pEC50, pIC50, pKi: −log10 of the molar value. Read-outs that look alike come from different tables or passages of the source. Each block holds one compound with its values, some of them ahead of it.

What was measured:
[1] = target: T1, EP4 receptors (Homo sapiens, UniProt P35408); experiment: Radioligand binding ([3H]PGE2), EP4; details: unit inferred; read-out: EP4 data KI
T1 construct: expressed in transfected cells; host or cells: HEK-293
T1 sequence (P35408 whole entry): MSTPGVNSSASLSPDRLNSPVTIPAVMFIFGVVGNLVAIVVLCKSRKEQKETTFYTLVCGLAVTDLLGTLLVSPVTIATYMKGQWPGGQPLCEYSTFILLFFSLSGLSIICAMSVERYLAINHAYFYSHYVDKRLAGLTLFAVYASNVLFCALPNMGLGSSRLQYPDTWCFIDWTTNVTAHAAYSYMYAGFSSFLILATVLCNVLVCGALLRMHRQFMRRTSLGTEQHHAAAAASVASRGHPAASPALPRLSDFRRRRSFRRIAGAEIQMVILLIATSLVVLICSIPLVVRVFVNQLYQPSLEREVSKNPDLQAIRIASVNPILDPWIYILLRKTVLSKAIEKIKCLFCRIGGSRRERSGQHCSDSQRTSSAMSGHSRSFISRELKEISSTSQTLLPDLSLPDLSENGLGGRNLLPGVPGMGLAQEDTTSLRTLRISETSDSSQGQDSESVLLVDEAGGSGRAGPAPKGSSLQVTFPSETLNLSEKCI
Method: (§1) HEK-293 cells stably expressing the human or feline FP receptor, or EP1, EP2, or EP4 receptors were washed with TME buffer, scraped from the bottom of the flasks, and homogenized for 30 sec using a Brinkman PT 10/35 polytron. TME buffer was added to achieve a final 40 ml volume in the centrifuge tubes (the composition of TME is 100 mM TRIS base, 20 mM MgCl2, […]; 10N HCl is added to achieve a pH of 7.4).
(§2) The cell homogenate was centrifuged at 19000 r.p.m. for 20 min at 4° C. using a Beckman Ti-60 rotor. The resultant pellet was resuspended in TME buffer to give a final 1 mg/ml protein concentration, as determined by Biorad assay. Radioligand binding competition assays vs. [^3H-]17 —phenyl PGF2α (5 nM) were performed in a 100 μl volume for 60 min. Binding reactions were started by adding plasma membrane fraction. The reaction was terminated by the addition of 4 ml ice-cold TRIS-HCl buffer and rapid filtration through glass fiber GF/B filters using a Brandel cell harvester. The filters were washed 3 times with ice-cold buffer and oven dried for one hour.
(§3) [^3H-] PGE2 (specific activity 180 Ci mmol) was used as the radioligand for EP receptors. [^3H] 17-phenyl PGF2α was employed for FP receptor binding studies. Binding studies employing EP1, EP2, EP4 and FP receptors were performed in duplicate in at least three separate experiments. A 200 μl assay volume was used. Incubations were for 60 min at 25° C. and were terminated by the addition of 4 ml of ice-cold 50 mM TRIS-HCl, followed by rapid filtration through Whatman GF/B filters and three additional 4 ml washes in a cell harvester (Brandel). Competition studies were performed using a final concentration of 5 nM [^3H]—PGE2, or 5 nM [^3H] 17-phenyl PGF2α and non-specific binding determined with 10^−5M of unlabeled PGE2, or 17-phenyl PGF2α, according to receptor subtype studied.

[2] = target: T2, HEK-EBNA cells expressing a PG EP2 receptor subtype (Homo sapiens, UniProt P43116); experiment: cAMP assay, EP2; format: cell-based; details: unit inferred; read-out: EP2 data cAMP EC50
T2 construct: expressed in transfected cells; host or cells: HEK-EBNA
T2 sequence (P43116 whole entry): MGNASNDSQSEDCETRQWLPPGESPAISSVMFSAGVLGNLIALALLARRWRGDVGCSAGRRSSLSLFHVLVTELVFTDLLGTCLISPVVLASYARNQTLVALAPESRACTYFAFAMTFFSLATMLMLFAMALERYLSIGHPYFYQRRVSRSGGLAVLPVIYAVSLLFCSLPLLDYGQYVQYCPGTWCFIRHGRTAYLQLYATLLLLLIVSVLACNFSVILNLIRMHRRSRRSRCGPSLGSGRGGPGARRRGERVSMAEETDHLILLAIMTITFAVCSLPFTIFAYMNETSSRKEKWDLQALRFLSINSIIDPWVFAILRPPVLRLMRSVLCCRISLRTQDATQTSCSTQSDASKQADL
Method: A 384-well drug plate was prepared to contain 6 test compounds, PGE2 and cAMP in 16 serial dilutions in triplicate, using a Biomek station. HEK-EBNA cells expressing a target PG receptor subtype (EP2 or EP4) were suspended in a stimulation buffer (HBSS, 0.1% BSA, 0.5 mM IBMX and 5 mM HEPES, pH 7.4) in a density of 10^4 cells/5 μl. The reaction was initiated by mixing 5 μL drug dilutions with 5 μl of HEK-EBNA cells in a well, carried out for 30 min at room temperature, and followed by the addition of 5 μl anti-cAMP acceptor beads in the control buffer with Tween-20 (25 mM NaCl, 0.03% Tween-20, 5 mM HEPES, pH7.4). After 30 min in the dark at room temperature, the mixtures were incubated with 15 μl biotinylated-cAMP/strepavidin donor beads in Lysis/Detection buffer (0.1% BSA, 0.3% Tween-20 and 5 mM HEPES, pH7.4) for 45 min at the room temperature. Fluorescence changes were read using a Fusion-alpha HT microplate reader.

[3] = target: T3, hEP2/Gqs5 (Homo sapiens, UniProt P43116); experiment: FLIPR calcium signal, hEP2; format: cell-based; details: for EC50: unit inferred, other columns of the table in nM, read-out: EP2 data flipr EC50; for pEC50: FLIPR Ca2+ signal, HEK-293(EBNA), read-out: FUNCTIONAL EC50 HEP2
T3 construct: expressed in transfected cells; host or cells: HEK-293(EBNA)
T3 sequence (P43116 whole entry): as above
Method: (§4) HEK-293(EBNA) cells, stably expressing one type or subtype of recombinant human prostaglandin receptors (prostaglandin receptors expressed: hDP/Gqs5; hEP1; hEP2/Gqs5; hEP3A/Gqi5; hEP4/Gqs5; hFP; hIP; hTP), were cultured in 100 mm culture dishes in high-glucose DMEM medium containing 10% fetal bovine serum, 2 mM 1-glutamine, 250 μg/ml geneticin (G418) and 200 μg/ml hygromycin B as selection markers, and 100 units/ml penicillin G, 100 μg/ml streptomycin and 0.25 μg/ml amphotericin B. • (b) Calcium Signal Studies on the FLIPR™
(§5) Cells were seeded at a density of 5×10^4 cells per well in Biocoat® Poly-D-lysine-coated black-wall, clear-bottom 96-well plates (Becton-Dickinson) and allowed to attach overnight in an incubator at 37° C. Cells were then washed two times with HBSS-HEPES buffer (Hanks Balanced Salt Solution without bicarbonate and phenol red, 20 mM HEPES, pH 7.4) using a Denley Cellwash plate washer (Labsystems). After 45 minutes of dye-loading in the dark, using the calcium-sensitive dye Fluo-4 AM at a final concentration of 2 μM, plates were washed four times with HBSS-HEPES buffer to remove excess dye leaving 100 μl in each well. Plates were re-equilibrated to 37° C. for a few minutes.
(§6) Cells were excited with an Argon laser at 488 nm, and emission was measured through a 510-570 nm bandwidth emission filter (FLIPR™, Molecular Devices, Sunnyvale, Calif.). Drug solution was added in a 50 μl volume to each well to give the desired final concentration. The peak increase in fluorescence intensity was recorded for each well. On each plate, four wells each served as negative (HBSS-HEPES buffer) and positive controls (standard agonists: BW245C (hDP); PGE2 (hEP1; hEP2/Gqs5; hEP3A/Gqi5; hEP4/Gqs5); PGF2α (hFP); carbacyclin (hIP); U-46619 (hTP), depending on receptor). The peak fluorescence change in each drug-containing well was then expressed relative to the controls.
(§7) Compounds were tested in a high-throughput (HTS) or concentration-response (CoRe) format. In the HTS format, forty-four compounds per plate were examined in duplicates at a concentration of 10^−5 M. To generate concentration-response curves, four compounds per plate were tested in duplicates in a concentration range between 10^−5 and 10^−11 M. The duplicate values were averaged. In either, HTS or CoRe format each compound was tested on at least 3 separate plates using cells from different passages to give an n≧3.

[4] = target: T4, human EP2 receptors (Homo sapiens, UniProt P43116); experiment: Competition radioligand binding ([3H]PGE2), EP2; details: for pKi: unit inferred, read-out: EP2 data Ki; for pIC50: read-out: BINDING IC50 HEP2
T4 construct: expressed in transfected cells; host or cells: HEK 293
T4 sequence (P43116 whole entry): as above
Method: Competition binding experiments were performed in a medium containing Hank's balanced salt solution, […], membranes (˜60 μg protein) or 2×10^5 cells from HEK 293 cells stably expressing human EP2 receptors, [^3H]PGE2 (10 nM) and various concentrations of test compounds in a total volume of 300 μl. Reaction mixtures were incubated at 23° C. for 60 min, and were filtered over Whatman GF/B filters under vacuum. Filters were washed three times with 5 ml ice-cold buffer containing 50 mM Tris/HCl (pH 7.3). Non-specific binding was estimated in the presence of excess unlabeled PGE2 (10 μM). Binding data fitted to the binding model for a single class of binding sites, using nonlinear regression analysis. IC50 values thus obtained were converted to Ki using the equation of Ki=(IC50/(1+[L]/KD) where [L] represents PGE2 concentration (10 nM) and KD the dissociation constant for [^3H]PGE2 at human EP2 receptors (40 nM).
as §1, §2, §3

[5] = target: T5, hEP3A/Gqi5 (Homo sapiens, UniProt P43115); experiment: FLIPR calcium signal, hEP3A; format: cell-based
T5 construct: expressed in transfected cells; host or cells: HEK-293(EBNA)
T5 sequence (P43115 1-390): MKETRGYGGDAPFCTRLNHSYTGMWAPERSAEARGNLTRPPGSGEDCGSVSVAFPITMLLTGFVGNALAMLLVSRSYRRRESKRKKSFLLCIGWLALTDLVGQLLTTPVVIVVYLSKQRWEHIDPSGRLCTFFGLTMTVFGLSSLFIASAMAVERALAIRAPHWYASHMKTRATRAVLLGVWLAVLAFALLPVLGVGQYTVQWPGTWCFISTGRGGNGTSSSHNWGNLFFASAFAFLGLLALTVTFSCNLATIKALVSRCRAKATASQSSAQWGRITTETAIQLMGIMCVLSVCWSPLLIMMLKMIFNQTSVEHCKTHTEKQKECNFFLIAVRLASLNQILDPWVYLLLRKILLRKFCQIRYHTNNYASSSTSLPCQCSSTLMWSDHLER
Method: as §4, §5, §6, §7

[6] = target: T6, hEP4/Gqs5 (Homo sapiens, UniProt P35408); experiment: FLIPR calcium signal, hEP4; format: cell-based
T6 construct: expressed in transfected cells; host or cells: HEK-293(EBNA)
T6 sequence (P35408 whole entry): as the sequence (P35408 whole entry) above
Method: as §4, §5, §6, §7

[7] = read-out: Other Receptors EC50 hEP3A
[8] = FLIPR Ca2+ signal, HEK-293(EBNA), read-out: FUNCTIONAL EC50 HEP3A
[9] = FLIPR Ca2+ signal, HEK-293(EBNA), read-out: FUNCTIONAL EC50 HEP4
[10] = unit inferred, read-out: EP4 data flipr EC50

SMILES: CCCCCC(O)c1ccc(N2C(=O)CC[C@@H]2/C=C/Cc2ccc(C(=O)O)s2)cc1 (stereo partly drawn) [drawing 144]
pKi [1]: < 5.00
pEC50 [2]: 7.82
EC50 [3]: 226 nM
pKi [4]: 5.86

SMILES: CCCCCC(O)c1ccc(N2C(=O)CC[C@@H]2/C=C/Cc2ccc(C(=O)O)s2)cc1 (stereo partly drawn) [drawing 172]
pEC50 [5, 7]: 5.85

SMILES: CCCC1(C(O)c2cccc([C@H]3[C@H](O)CC(=O)[C@@H]3C/C=C\CCCC(=O)O)c2)CCC1 (stereo partly drawn)
pEC50 [3]: 5.28
pEC50 [5, 8]: 5.77

SMILES: CCCC1(C(O)c2cccc([C@@H]3[C@@H](CCCCCCC(=O)O)[C@H](Cl)C[C@H]3O)c2)CCC1 (stereo partly drawn)
pEC50 [3]: 5.83
pEC50 [5, 8]: 5.51

SMILES: CC(C)(C)C(O)c1ccc([C@@H]2[C@@H](CCCCCCC(=O)O)[C@H](Cl)C[C@H]2O)cc1 (stereo partly drawn)
pEC50 [3]: 5.90
pEC50 [6, 9]: < 5.00
pIC50 [4]: 5.44

SMILES: CCCCCC(O)c1ccc(N2C(=O)CC[C@@H]2CCCc2ccc(C(=O)O)s2)cc1 (single isomer, unassigned) [drawing 150]
pKi [1]: < 5.00
EC50 [3]: 6 nM
pEC50 [6, 10]: < 5.00
pEC50 [5, 7]: 7.92

SMILES: CC(C)(CO)c1ccc([C@@H]2[C@@H](CCCCCCC(=O)O)[C@H](Cl)C[C@H]2O)cc1
pEC50 [3]: 6.15
pEC50 [6, 9]: < 5.00
pIC50 [4]: 5.05

SMILES: CCCC1(C(O)c2cccc([C@H]3[C@H](O)CC(=O)[C@@H]3C/C=C\CCCC(=O)OC)c2)CCC1 (stereo partly drawn)
pEC50 [3]: < 5.00
pEC50 [6, 9]: < 5.00
pEC50 [5, 8]: < 5.00

SMILES: COC(=O)CCC/C=C\C[C@@H]1[C@@H](c2ccc(C(C)(C)C)cc2)[C@H](O)C[C@H]1Cl
pEC50 [3]: < 5.00
pEC50 [5, 8]: < 5.00

SMILES: CCCC1(C(O)c2cccc([C@H]3[C@H](O)CC(=O)[C@@H]3C/C=C\CCCC(=O)NCC)c2)CCC1 (stereo partly drawn)
pEC50 [3]: < 5.00
pEC50 [6, 9]: < 5.00

SMILES: CC(C)(C)C(O)c1ccc([C@@H]2[C@@H](C/C=C\CCCC(=O)O)[C@H](Cl)C[C@H]2O)cc1 (stereo partly drawn)
pEC50 [3]: 6.11
pEC50 [6, 9]: < 5.00
pIC50 [4]: 5.81

SMILES: CC(C)(C)c1ccc(N2C(=O)CC[C@@H]2COCCCCC(=O)O)cc1
pKi [1]: < 5.00
EC50 [3]: > 10000 nM
pEC50 [6, 10]: < 5.00

SMILES: COC(=O)CCCCCC[C@@H]1[C@@H](c2ccc(C(C)(C)CO)cc2)[C@H](O)C[C@H]1Cl [drawing 119]
pEC50 [3]: < 5.00
pEC50 [6, 9]: < 5.00

Results, then the compound that gave them:

pKi [1]: 5.06
pKi [4]: 4.64
SMILES: CCCCCC(O)c1ccc(N2C(=O)CC[C@@H]2COc2ccc(C(=O)O)cc2)cc1 (stereo partly drawn) [drawing 157]

pKi [1]: < 5.00
pEC50 [2]: 8.10
EC50 [3]: 215 nM
pKi [4]: 6.79
SMILES: CCCCCC(=O)c1ccc(N2C(=O)CC[C@@H]2COCc2ccc(C(=O)O)s2)cc1

pKi [1]: < 5.00
pEC50 [2]: 6.83
EC50 [3]: 1230 nM
pKi [4]: 5.64
SMILES: O=C(O)c1ccc(COC[C@H]2CCC(=O)N2c2ccc(C(O)Cc3ccccc3)cc2)o1 (stereo partly drawn)

pKi [1]: < 5.00
pEC50 [2]: 6.29
EC50 [3]: > 10000 nM
SMILES: CCCCCC(O)c1ccc(N2C(=O)CC[C@@H]2COCc2cccc(C(=O)O)c2)cc1 (stereo partly drawn)

pKi [1]: 5.06
EC50 [3]: 7280 nM
pKi [4]: 4.64
SMILES: CCCCCC(O)c1ccc(N2C(=O)CC[C@@H]2COc2ccc(C(=O)O)cc2)cc1 (stereo partly drawn) [drawing 185]

pKi [1]: < 5.00
EC50 [3]: > 10000 nM
pEC50 [6, 10]: < 5.00
SMILES: CC(C)(C)c1ccc(N2C(=O)CC[C@@H]2COCc2cccc(C(=O)O)c2)cc1

pKi [1]: < 5.00
pEC50 [2]: 5.91
EC50 [3]: 7670 nM
pKi [4]: < 5.00
SMILES: CC(C)C(O)c1ccc(N2C(=O)CC[C@@H]2COCc2ccc(C(=O)O)o2)cc1 (stereo partly drawn)
